Data reported in patent publication US20260355361A1, “METHODS FOR DIAGNOSIS AND TREATMENT OF PULMONARY HYPERTENSION” (THE METHODIST HOSPITAL, priority 2022, published 2026).

Target: VEGFr2 (Rattus norvegicus, UniProt O08775)
Assay: PET imaging of ^18F-ZD-G2 versus ^18FDG in MCT rat model of PAH
Format: in vivo
Conditions: early stage of PAH (MCT-10 days and MCT-2 weeks); PET at 60 minutes after injection
Method: Images of ^18F-ZD-G2 probe and ^18FDG were compared. Rats exposed to monocrotaline were used to develop pulmonary arterial hypertension rat model (MCT), while healthier rats were used as a control group.
Images of ^18F-ZD-G2 probe and ^18FDG were compared.
A PET imaging study was further performed with ^18F-ZD-G2 using MCT rat model as previous described. Healthy rats were used as control. Clinically used ^18FDG PET imaging was also performed on both groups of […] following the same imaging protocol for comparison.

Chain of VEGFr2 (O08775 20-1343): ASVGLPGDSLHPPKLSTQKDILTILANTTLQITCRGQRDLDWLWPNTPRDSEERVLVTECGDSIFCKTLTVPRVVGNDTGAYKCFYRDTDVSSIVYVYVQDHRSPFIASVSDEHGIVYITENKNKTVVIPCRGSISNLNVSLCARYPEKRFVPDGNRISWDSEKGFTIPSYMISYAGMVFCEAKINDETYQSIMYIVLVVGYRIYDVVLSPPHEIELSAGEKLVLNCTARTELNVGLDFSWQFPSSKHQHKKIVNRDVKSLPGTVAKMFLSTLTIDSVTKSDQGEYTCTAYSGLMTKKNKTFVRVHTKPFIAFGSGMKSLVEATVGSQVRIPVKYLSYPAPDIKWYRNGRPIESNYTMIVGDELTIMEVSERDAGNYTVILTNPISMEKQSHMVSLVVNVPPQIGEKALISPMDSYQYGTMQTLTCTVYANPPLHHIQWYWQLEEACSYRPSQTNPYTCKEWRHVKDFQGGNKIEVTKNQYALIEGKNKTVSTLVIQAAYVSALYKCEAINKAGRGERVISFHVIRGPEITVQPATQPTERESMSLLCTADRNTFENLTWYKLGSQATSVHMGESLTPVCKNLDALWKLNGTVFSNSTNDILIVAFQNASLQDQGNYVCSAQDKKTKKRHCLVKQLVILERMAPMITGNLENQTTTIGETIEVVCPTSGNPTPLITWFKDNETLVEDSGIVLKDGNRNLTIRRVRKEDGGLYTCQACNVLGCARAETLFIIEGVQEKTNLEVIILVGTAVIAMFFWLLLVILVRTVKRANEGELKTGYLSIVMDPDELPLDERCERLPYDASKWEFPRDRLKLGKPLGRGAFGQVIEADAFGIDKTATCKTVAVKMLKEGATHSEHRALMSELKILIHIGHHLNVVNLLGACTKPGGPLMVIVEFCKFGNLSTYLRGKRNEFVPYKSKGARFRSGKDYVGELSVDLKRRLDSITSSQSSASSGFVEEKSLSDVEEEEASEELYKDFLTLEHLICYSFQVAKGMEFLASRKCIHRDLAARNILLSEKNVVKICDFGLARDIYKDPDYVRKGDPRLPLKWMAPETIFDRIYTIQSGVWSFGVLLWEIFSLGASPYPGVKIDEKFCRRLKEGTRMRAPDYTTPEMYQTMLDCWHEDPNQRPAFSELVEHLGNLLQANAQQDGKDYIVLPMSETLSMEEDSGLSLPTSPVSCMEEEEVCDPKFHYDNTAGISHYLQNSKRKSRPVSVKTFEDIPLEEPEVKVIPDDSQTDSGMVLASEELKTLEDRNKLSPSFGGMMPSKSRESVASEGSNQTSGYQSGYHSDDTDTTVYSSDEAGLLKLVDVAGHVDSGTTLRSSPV

Lung uptake, MCT versus control: no obvious difference
Structure (SMILES): OC[C@H]1OC(O)[C@H]([18F])[C@@H](O)[C@@H]1O (stereo partly shown) [^18FDG]
